system: rabbit skeletal myofibrils (fast skeletal myofibrils); experiment: Activation of fast skeletal myofibrils (PUMA assay, PK/LDH-coupled ATPase at pCa25); format: biochemical; details: AC1.4 determined according to the procedure of Example 39; reported as class symbols
Summary of the method: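 ATPase activity of Triton-washed rabbit skeletal myofibrils, roughly 90% fast fibres, tracked by NADH loss at 340 nm through a PK/LDH-coupled ADP-regenerating system. Calcium set to 25% of maximal activity (pCa25), in PIPES 12 mM pH 6.8 with 2 mM MgCl2 and 1 mM DTT; AC1.4 reported.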

| SMILES | Mean AC1.4 |
| --- | --- |
| CC(C)(CNc1ccc(C(=O)N2CCC(C(N)=O)C2)nn1)c1ccc(F)cc1 (stereo not drawn) [1-[(6-{[2-(4-fluorophenyl)-2-methylpropyl]amino}pyridazin-3-yl)carbonyl]pyrrolidine-3-carboxamide] | D (D=>20 uM) |
| COCCC(CNc1ccc(-c2cccc(C(N)=O)c2)nn1)c1ccccc1F (stereo not drawn) [3-(6-{[2-(2-fluorophenyl)-4-methoxybutyl]amino}pyridazin-3-yl)benzamide] | D (D=>20 uM) |
| NC(=O)c1cccc(-c2ccc(NCCc3ccc(Cl)cc3)nn2)c1 | D (D=>20 uM) |
| CC(C)(CNc1ccc(-c2cccc(C#N)c2)nn1)OCc1ccccc1 | D (D=>20 uM) |
| CC(C)(CNc1ccc(-c2ccccc2C(N)=O)nn1)c1ccc(F)cc1 [2-(6-{[2-(4-fluorophenyl)-2-methylpropyl]amino}pyridazin-3-yl)benzamide] | B (B=1-10 uM) |
| NC(=O)c1cccc(-c2ccc(NCCc3ccc(F)cc3F)nn2)c1 | D (D=>20 uM) |
| CC(C)(O)c1ccc(C(C)(C)CNc2ccc(-c3ccc4[nH]nc(N)c4c3)nn2)cc1 | D (D=>20 uM) |
| CC1(C)CN(c2ccc(-c3cccc(C(N)=O)c3)nn2)c2ccccc21 [3-[6-(3,3-dimethylindolinyl)pyridazin-3-yl]benzamide] | D (D=>20 uM) |
| CC(C)(CNc1ccc(C(=O)N2CCCC2C(N)=O)nn1)c1ccc(F)cc1 (stereo not drawn) [1-[(6-{[2-(4-fluorophenyl)-2-methylpropyl]amino}pyridazin-3-yl)carbonyl]pyrrolidine-2-carboxamide] | D (D=>20 uM) |
| NC(=O)c1cccc(-c2ccc(NC3Cc4ccccc4C3)nn2)c1 [3-[6-(indan-2-ylamino)pyridazin-3-yl]benzamide] | D (D=>20 uM) |
| NC(=O)c1cccc(-c2ccc(NCCc3cc(F)cc(F)c3)nn2)c1 | D (D=>20 uM) |
| NC(=O)c1cccc(-c2ccc(N[C@@H]3C[C@H]3c3ccccc3)nn2)c1 | D (D=>20 uM) |

The remaining lines, values ahead:

| Mean AC1.4 | SMILES |
| --- | --- |
| A (A=<1 uM) | CC(C)(CNc1ccc(-c2ccc3[nH]cnc3c2)nn1)c1ccc(F)cc1 [(6-benzimidazol-5-ylpyridazin-3-yl)[2-(4-fluorophenyl)-2-methylpropyl]amine] |
| B (B=1-10 uM) | CC(C)(CNc1ccc(-c2ccnc(N)c2)nn1)c1ccc(F)cc1 [[6-(2-amino(4-pyridyl))pyridazin-3-yl][2-(4-fluorophenyl)-2-methylpropyl]amine] |
| C (C=10-20 uM) | CC(C)(CNc1ccc(C(=O)N[C@H](Cc2ccccc2)C(N)=O)nn1)c1ccc(F)cc1 [N-((1R)-1-carbamoyl-2-phenylethyl)(6-{[2-(4-fluorophenyl)-2-methylpropyl]amino}pyridazin-3-yl)carboxamide] |
| B (B=1-10 uM) | COC(=O)c1cncc(-c2ccc(NCC(C)(C)c3ccc(F)cc3)nn2)c1 [methyl 5-(6-{[2-(4-fluorophenyl)-2-methylpropyl]amino}pyridazin-3-yl)pyridine-3-carboxylate] |
| B (B=1-10 uM) | CC(C)(CNc1ccc(-c2cn[nH]c2)nn1)c1ccc(F)cc1 [[2-(4-fluorophenyl)-2-methylpropyl](6-pyrazol-4-ylpyridazin-3-yl)amine] |

same assay, conditions: median AC1.4 class, procedure of Example 39

| SMILES | Mean AC1.4 |
| --- | --- |
| O=C(c1cnc(-c2ccc(NCC3(c4ncccc4F)CCC3)nn2)s1)N1CCS(=O)(=O)CC1 [4-({2-[6-({[(3-fluoro-2-pyridyl)cyclobutyl]methyl}ami-no)pyridazin-3-yl]-1,3-thiazol-5-yl}carbonyl)-1,4-thiazaperhydroine-1,1-dione] | B (B=1-10 uM) |
| O=c1cc(-c2ccc(NCC3(c4ncccc4F)CCC3)nn2)[nH][nH]1 [3-[6-({[(3-fluoro-2-pyridyl)cyclobutyl]methyl}ami-no)pyridazin-3-yl]-3-pyrazolin-5-one] | B (B=1-10 uM) |
| Cn1c(C(N)=O)cnc1-c1ccc(NCC2(c3ncccc3F)CCC2)nn1 [2-[6-({[(3-fluoro(2-pyridyl))cyclobutyl]methyl}ami-no)pyridazin-3-yl]-1-methylimidazole-5-carboxamide] | B (B=1-10 uM) |
| NC(=O)c1ccc(F)c(-c2ccc(NC3(c4ccc(OC(F)F)cn4)CCC3)nn2)c1 | D (D=>20 uM) |
| CC(C)n1[nH]c2ccc(-c3ccc(NCC4(c5ncccc5F)CCC4)nn3)cc2c1=O | B (B=1-10 uM) |
| NC(=O)c1ccc2nc(-c3ccc(NCC4(c5ncccc5F)CCC4)nn3)sc2n1 [2-[6-({[(3-fluoro-2-pyridyl)cyclobutyl]methyl}ami-no)pyridazin-3-yl]-1,3-thiazolino[5,4-b]pyridine-5-carboxamide] | D (D=>20 uM) |

Results, then the compound that gave them:

| Mean AC1.4 | SMILES |
| --- | --- |
| B (B=1-10 uM) | NC(=O)c1cc(-c2ccc(NC3(c4ncccc4F)CCC3)nn2)ccc1O [5-(6-{[(3-fluoro(2-pyridyl))cyclobutyl]amino}pyr-idazin-3-yl)-2-hydroxybenzamide] |
| A (A=<1 uM) | COc1ncccc1-c1ccc(NC2(c3ccc(F)cc3)CCC2)nn1 [[(4-fluorophenyl)cyclobutyl][6-(2-methoxy(3-pyridyl))pyridazin-3-yl]amine] |
| A (A=<1 uM) | O=C1NC[C@@H](C(=O)NCc2cnc(-c3ccc(NCC4(c5ncccc5F)CCC4)nn3)s2)N1 [((4S)-2-oxoimidazolidin-4-yl)-N-({2-[6-({[(3-fluoro(2-pyridyl))cyclobutyl]methyl}ami-no)pyridazin-3-yl](1,3-thiazol-5-yl)}methyl)carboxamide] |
| C (C=10-20 uM) | NC(=O)c1nnc(-c2ccc(NCC3(c4ncccc4F)CCC3)nn2)o1 [5-[6-({[(3-fluoro-2-pyridyl)cyclobutyl]methyl}ami-no)pyridazin-3-yl]-1,3,4-oxadiazole-2-carboxamide] |
| B (B=1-10 uM) | CC(C)OC(=O)c1ccc(F)c(-c2ccc(NC[C@]3(c4ncccc4F)C[C@H](F)C3)nn2)c1 [methylethyl 4-fluoro-3-[6-({[3-fluoro-1-(3-fluoro(2-pyridyl))cyclobutyl]methyl}ami-no)pyridazin-3-yl]benzoate] |
| A (A=<1 uM) | O=C(NC[C@H](O)CO)c1ccc(F)c(-c2ccc(NC[C@]3(c4ncccc4F)C[C@H](F)C3)nn2)c1 [N-((2S)-2,3-dihydroxypropyl){4-fluoro-3-[6-({[3-fluoro-1-(3-fluoro(2-pyridyl))cyclobutyl]methyl}ami-no)pyridazin-3-yl]phenyl}carboxamide] |

same assay, conditions: median AC1.4 reported as class; procedure of Example 39

| SMILES | Mean AC1.4 |
| --- | --- |
| CC(C)(C(N)=O)c1cnc(-c2ccc(NCC3(c4ncccc4F)CCC3)nn2)s1 [2-{2-[6-({[(3-fluoro(2-pyridyl))cyclobutyl]methyl}ami-no)pyridazin-3-yl](1,3-thiazol-5-yl)}-2-methylpropanamide] | D (D=>20 uM) |
| Cc1cc(C(N)=O)c(O)c(-c2ccc(NCC3(c4ncccc4F)CCC3)nn2)c1 [3-[6-({[(3-fluoro(2-pyridyl))cyclobutyl]methyl}ami-no)pyridazin-3-yl]-2-hydroxy-5-methylbenzamide] | B (B=1-10 uM) |

The next lines start with the values.

| Mean AC1.4 | SMILES |
| --- | --- |
| B (B=1-10 uM) | CNC(=O)c1ccc(O)c(-c2ccc(NCC3(c4ncccc4F)CCC3)nn2)c1 [{3-[6-({[(3-fluoro(2-pyridyl))cyclobutyl]methyl}amino)pyr-idazin-3-yl]-4-hydroxyphenyl}-N-methylcarboxamide] |
| A (A=<1 uM) | CC(C)[C@H](N)C(=O)OCC(=O)NCc1cnc(-c2ccc(NCC3(c4ncccc4F)CCC3)nn2)s1 [[N-({2-[6-({[(3-fluoro-2-pyridyl)cyclobutyl]methyl}ami-no)pyridazin-3-yl]-1,3-thiazol-5-yl}methyl)carbamoyl]methyl (2S)-2-amino-3-methylbutanoate] |

Reference: patent publication US10076519B2 (CYTOKINETICS, INC., priority 2010, dated 2018)
